Test results published in patent US20070265456A1, “Novel crystal forms of atorvastatin hemi-calcium and processes for their preparation as well as novel processes for preparing other forms” (priority 2006, published 2007).

Assay: Stability testing against formation of the impurities atorvastatin-epoxy-dihydroxy (AED) and epoxydiketone on storage
Type: physicochemical
Design: key to ATV-epoxy-diketone: impurity content in % (w/w)
Protocol: As used herein, the term “stable” in reference to atorvastatin hemi-calcium Form VIII relates to the formation of […] 0.01% (w/w) of the impurity AED. The stability of Form VIII is measured by maintaining Form VIII at a temperature of about 40° C. at a relative humidity of about 75% for at least about 1 month, or at a temperature of about 25° C. at a relative humidity of about 60% for at least about 6 months. Stable atorvastatin hemi-calcium Form VIII is a Form VIII in which no more than about 0.01% (w/w) of the AED impurity is formed when maintained under the conditions specified above.
The atorvastatin hemi-calcium crystalline produced above was dried by two steps: In a vacuum dryer at about 40° C. by 3 cycles and after the LOD<5% was reached the drying was continued in a fluid bed dryer at about 50° C. The dry material was milled and micronized.
The dried, milled, atorvastatin hemi-calcium crystalline was tested for stability against the formation of two potential impurities: atorvastatin-epoxy-dihydroxy (AED) and epoxydiketone.

[1] = 0 (5 m at storage) (Test Sample B)
[2] = 1 m/25° C./60% RH (Test Sample E)
[3] = 1 m/40° C./75% RH (Test Sample I)
[4] = 2 m/25° C./60% RH (Test Sample F)
[5] = 2 m/40° C./75% RH (Test Sample J)
[6] = 3 m/25° C./60% RH (Test Sample G)
[7] = 3 m/40° C./75% RH (Test Sample K)
[8] = 6 m/25° C./60% RH (Test Sample H)
[9] = 6 m/40° C./75% RH (Test Sample L)

ATV-epoxy-dihydroxy (AED) [1]: < 0.01 % (w/w) | ATV-epoxy-diketone [1]: <0.01 | ATV-epoxy-dihydroxy (AED) [2]: < 0.01 % (w/w) | ATV-epoxy-diketone [2]: <0.01 | ATV-epoxy-dihydroxy (AED) [3]: < 0.01 % (w/w) | ATV-epoxy-diketone [3]: <0.05 | ATV-epoxy-dihydroxy (AED) [4]: < 0.01 % (w/w) | ATV-epoxy-diketone [4]: <0.05 | ATV-epoxy-dihydroxy (AED) [5]: < 0.05 % (w/w) | ATV-epoxy-diketone [5]: <0.05 | ATV-epoxy-dihydroxy (AED) (3 m/2-8° C. (Test Sample C)): < 0.01 % (w/w) | ATV-epoxy-diketone (3 m/2-8° C. (Test Sample C)): <0.05 | ATV-epoxy-dihydroxy (AED) [6]: < 0.01 % (w/w) | ATV-epoxy-diketone [6]: <0.05 | ATV-epoxy-dihydroxy (AED) [7]: < 0.05 % (w/w) | ATV-epoxy-diketone [7]: 0.05 | ATV-epoxy-dihydroxy (AED) (6 m/2-8° C. (Test Sample D)): < 0.05 % (w/w) | ATV-epoxy-diketone (6 m/2-8° C. (Test Sample D)): <0.05 | ATV-epoxy-dihydroxy (AED) [8]: < 0.01 % (w/w) | ATV-epoxy-diketone [8]: <0.05 | ATV-epoxy-dihydroxy (AED) [9]: < 0.05 % (w/w) | ATV-epoxy-diketone [9]: 0.05 | ATV-epoxy-dihydroxy (AED) (release (Test Sample A)): < 0.01 % (w/w) | ATV-epoxy-diketone (release (Test Sample A)): <0.01
Structure (SMILES): CC(C)c1c(C(=O)Nc2ccccc2)c(-c2ccccc2)c(-c2ccc(F)cc2)n1CC[C@@H](O)C[C@@H](O)CC(=O)O (relative stereo) [atorvastatin hemi-calcium crystalline, atorvastatin hemi-calcium]
